According to patent publication US20180243190A1, “ACTIVATORS OF NRF2-DEPENDENT PHOTOPROTECTION AND RELATED USES THEREOF” (THE ARIZONA BOARD OF REGENTS ON BEHALF OF THE UNIVERSITY OF …, priority 2015, published 2018):

Tests used:
HaCaT keratinocytes = test system: HaCaT keratinocytes; parameters: cytoprotection against 1O2-induced oxidative stress: dose or concentration left out as unconfirmed; conditions: HaCaT
Protocol: Photodynamic induction of intracellular oxidative stress and its suppression by bixin pretreatment was analyzed by flow cytometry using 2′,7′-dichlorodihydrofluorescein diacetate (DCFH-DA) as a sensitive non-fluorescent precursor dye according to a published standard procedure [14]. HaCaT keratinocytes were pretreated with bixin (1 or 24 h) and then exposed to singlet oxygen generated by dye-sensitization as described earlier [14, 44]. In brief, toluidine blue 0 (TB) photosensitization was achieved using a ‘Sylvania 15 W Cool White’ light tube delivering visible light at an irradiance of 4.29 mW/cm^2. The irradiance in the visible region (400-700 nm) was determined using a spectroradiometer, Model 754 from Optronic Laboratories (Orlando, Fla.). Cells received visible radiation at a distance of 50 mm from the source through the polystyrene lids of cell culture dishes. For ^1O2 exposure, cells were washed with PBS and immediately exposed to the combined action of visible light (0.3 J/cm^2) and TB (3.3 μM) in PBS. Following 5 min incubation in the dark after irradiation, cells were washed with PBS. Cells were then incubated for 60 min in the dark (37° C., 5% CO2) with culture medium containing DCFH-DA (5 μg/mL final concentration). Cells were then washed with PBS, harvested by trypsinization, resuspended in 300 μl PBS, and analyzed by flow cytometry.

[1] = target: T1, KEAP1 wild type (KEAP1-WT) (Homo sapiens, UniProt Q14145); format: cell-based; conditions: SF 5 μM, As 5 μM, bixin 40 μM; 16 h
T1 construct: expressed in transfected cells; host or cells: HaCaT human keratinocytes
T1 sequence (Q14145 whole entry, species assumed): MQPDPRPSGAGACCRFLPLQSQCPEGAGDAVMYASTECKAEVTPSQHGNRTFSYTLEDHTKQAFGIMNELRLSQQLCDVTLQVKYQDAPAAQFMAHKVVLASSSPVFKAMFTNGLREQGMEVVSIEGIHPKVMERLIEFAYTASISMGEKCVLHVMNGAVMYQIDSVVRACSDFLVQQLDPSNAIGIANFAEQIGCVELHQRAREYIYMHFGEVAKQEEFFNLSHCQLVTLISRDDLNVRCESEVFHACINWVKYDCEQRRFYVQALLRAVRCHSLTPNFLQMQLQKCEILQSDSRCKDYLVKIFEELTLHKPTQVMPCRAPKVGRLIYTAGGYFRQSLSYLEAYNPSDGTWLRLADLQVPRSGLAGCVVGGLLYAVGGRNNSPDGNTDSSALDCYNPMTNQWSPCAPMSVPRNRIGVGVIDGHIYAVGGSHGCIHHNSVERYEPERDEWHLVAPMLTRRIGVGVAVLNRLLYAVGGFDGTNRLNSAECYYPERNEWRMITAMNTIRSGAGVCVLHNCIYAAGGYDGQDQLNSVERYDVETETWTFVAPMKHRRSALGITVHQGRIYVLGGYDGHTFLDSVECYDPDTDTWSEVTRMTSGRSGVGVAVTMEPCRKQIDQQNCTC
Description: (§1) Since it has been shown previously that NRF2 activation by canonical inducers (including SF and tBHQ) depends on C (Cys)-151, a critical cysteine residue in KEAP1, the mechanistic involvement of KEAP1-C151 bixin-based NRF2 activation was examined. HaCaT cells were cotransfected with expression vectors for either KEAP1 wild type (KEAP1-WT) or a mutant KEAP1 (KEAP1-C151S; Cys-151 mutated to serine) along with ARE-firefly luciferase and Renilla luciferase reporters to assess NRF2 transcriptional activity (FIG. 3G). After exposure to SF (5 μM), As (sodium arsenite; 5 μM), or bixin (40 μM; all 16 h), NRF2 transcriptional activity was enhanced by all treatments in KEAP1-WT cells, whereas NRF2 activation by SF or bixin was abolished in KEAP1-C151S cells.
(§2) Transfection of cDNA was performed using Lipofectamine 3000 (Invitrogen) according to the manufacturer's instructions. Activation of NRF2 transcriptional activity was performed as previously published. Briefly, HaCaT cells were cotransfected with expression vectors for either KEAP1 wild type (KEAP1-WT) or KEAP1 with a mutation that generates a protein that contains a serine residue instead of a cysteine (KEAP1-C151S), along with NQO1-ARE firefly luciferase and Renilla luciferase reporters. At 24 h post-transfection, cells were left untreated or treated with SF (5 μM), As (5 μM), or bixin (40 μM) for 16 h. The cells were then lysed for analysis of the reporter gene activity using the Promega dual-luciferase reporter gene assay system.

KEAP1-C151S = target: T2, KEAP1-C151S (Homo sapiens, UniProt Q14145, C151S); format: cell-based; conditions: SF 5 μM, As 5 μM, bixin 40 μM; 16 h
T2 construct: expressed in transfected cells; host or cells: HaCaT human keratinocytes
T2 sequence (Q14145 whole entry C151S): as the sequence (Q14145 whole entry, species assumed) above, with C151S counted along it
Description: as §1, §2

NRF2 = assay: Cell-based NRF2 ubiquitination assay; parameters: species or system human; conditions: HaCaT, bixin 40 μM or SF 5 μM with MG132 10 μM, 4 h
Protocol: In order to test if bixin-based NRF2 activation occurs through inhibition of KEAP1-mediated ubiquitination, a cell-based ubiquitination assay was performed in HaCaT cells cotransfected with expression vectors for NRF2 and HA-tagged ubiquitin (HA-Ub) (FIG. 3F). To this end, cells were either exposed to bixin (40 μM) or sulforaphane (SF; 5 μM, positive control) or left untreated, combined with proteasome inhibition (MG132; 10 μM, 4 h).
Experiments were performed according to previously published procedures. Cells were harvested in sample buffer (50 mM Tris-HCl [pH 6.8], 2% sodium dodecyl sulfate (SDS), 10% glycerol, 100 mM dithiothreitol (DTT), and 0.1% bromophenol blue), boiled and sonicated. Total cell lysates were resolved by SDS-PAGE and subjected to immunoblot analyses with the indicated antibodies. For the ubiquitination assay, cells were cotransfected with expression vectors for NRF2 and HA-tagged ubiquitin (HA-Ub). Cells were left untreated or treated with either 5 μM sulforaphane (SF) or 40 μM bixin along with 10 μM MG132 for 4 h. Cells were harvested in buffer containing 2% SDS, 150 mM NaCl, 10 mM Tris-HCl (pH 8.0), and 1 mM DTT and boiled immediately. […] The relative intensity of the bands was quantified using the ChemiDoc CRS gel documentation system and Quantity One software (BioRad).

Row | SMILES | cytoprotection against 1O2-induced oxidative stress (HaCaT keratinocytes) | NRF2 transcriptional activity in KEAP1-WT cells [1] | NRF2 activation in KEAP1-C151S cells (KEAP1-C151S) | NRF2-ubiquitination versus untreated control (NRF2)
1 | [N-]=[N+]=[N-].[Na+] [NaN3, reference compound] | active only if present during visible light-driven dye sensitization |  |  | 
2 | O=[As]O [As, sodium arsenite] |  | enhanced | equally effective | 
3 | C[S+]([O-])CCCCN=C=S (stereo not drawn) [SF, sulforaphane] |  | enhanced | abolished | inhibitory effects
